Structures are written as SMILES. pIC50: −log10 of the molar value. Some results are limits rather than exact numbers.

Chain of purified human MMP-12 enzyme (P39900 106-470): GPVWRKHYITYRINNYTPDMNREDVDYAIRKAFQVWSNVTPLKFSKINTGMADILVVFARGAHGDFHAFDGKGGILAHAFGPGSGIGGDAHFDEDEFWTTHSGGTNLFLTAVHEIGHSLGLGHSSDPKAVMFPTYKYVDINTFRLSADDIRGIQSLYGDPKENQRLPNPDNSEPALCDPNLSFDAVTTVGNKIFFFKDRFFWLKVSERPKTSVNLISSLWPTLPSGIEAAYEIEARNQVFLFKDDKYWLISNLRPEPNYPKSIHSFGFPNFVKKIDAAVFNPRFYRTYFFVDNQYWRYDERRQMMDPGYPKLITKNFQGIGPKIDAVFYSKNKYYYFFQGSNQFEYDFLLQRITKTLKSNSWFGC

This assay addresses purified human MMP-12 enzyme (Homo sapiens, UniProt P39900). Description: MMP-12 FRET assay. It counts as biochemical. The note with it: substrate 20 μM, room temperature. Summed up:
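Enzyme pre-incubated 30 min at room temperature with compound in 50 mM HEPES pH 7.4, 100 mM NaCl, 5 mM CaCl2, 0.005% Brij-35, 10% DMSO final. Reaction started with 20 μM MCA-Pro-Leu-Gly-Leu-Dpa(DNP)-Ala-Arg, and initial cleavage rate read over 30 min (λex 325, λem 395 nm). IC50 from slope-factor inhibition fit.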
Turning to `CC(C)[C@H](NS(=O)(=O)c1ccc2c(c1)oc1ccc(-c3ccc(Cl)s3)cc12)C(=O)O` [Compound 74, (S)-2-(8-(5-chlorothiophen-2-yl)dibenzo[b,d]furan-3-sulfonamido)-3-methylbutanoic acid], the pIC50 is more than 8.82.

For `CC(C)[C@H](NS(=O)(=O)c1ccc2c(c1)oc1cc(-c3cnc(Cl)s3)ccc12)C(=O)O` [Compound 181, (S)-2-(7-(2-chlorothiazol-5-yl)dibenzo[b,d]furan-3-sulfonamido)-3-methylbutanoic acid], the pIC50 was more than 8.82.

In the case of `CC(C)[C@H](NS(=O)(=O)c1ccc2c(c1)oc1ccc(-c3nc4cc(F)c(F)cc4s3)cc12)C(=O)O` [Compound 220, (S)-2-(8-(5,6-difluorobenzo[d]thiazol-2-yl)dibenzo[b,d]furan-3-sulfonamido)-3-methylbutanoic acid], the pIC50 is more than 8.82.

`CC(C)[C@H](NS(=O)(=O)c1ccc2c(c1)oc1ccc(C3=NCCN3)cc12)C(=O)O` [Compound 77, (S)-2-(8-(4,5-dihydro-1H-imidazol-2-yl)dibenzo[b,d]furan-3-sulfonamido)-3-methylbutanoic acid]: the pIC50 is 7.64.

`CC(C)[C@H](NS(=O)(=O)c1ccc2c(c1)sc1ccc(-c3cnn(C)c3)cc12)C(=O)O` [Compound 40, (S)-3-methyl-2-(8-(1-methyl-1H-pyrazol-4-yl)dibenzo[b,d]thiophene-3-sulfonamido)butanoic acid]: the pIC50 is 8.59.

`CC(C)NC(=N)c1ccc2oc3cc(S(=O)(=O)N[C@H](C(=O)O)C(C)C)ccc3c2c1` [Compound 76, (S)-2-(8-(N-isopropylcarbamimidoyl)dibenzo[b,d]furan-3-sulfonamido)-3-methylbutanoic acid] had a pIC50 of 7.74.

`Cc1cc(-c2ccc3oc4cc(S(=O)(=O)N[C@H](C(=O)O)C(C)C)ccc4c3c2)c(C)s1` [Compound 89, (S)-2-(8-(2,5-dimethylthiophen-3-yl)dibenzo[b,d]furan-3-sulfonamido)-3-methylbutanoic acid] showed a pIC50 of 8.60.

Compound `CC(C)[C@H](NS(=O)(=O)c1ccc2oc3cc(-c4noc(C(C)(C)C)n4)ccc3c2c1)C(=O)O` [Compound 276, (S)-2-(7-(5-tert-butyl-1,2,4-oxadiazol-3-yl)dibenzo[b,d]furan-2-sulfonamido)-3-methylbutanoic acid] showed a pIC50 of 7.47.

`CC(C)[C@H](NS(=O)(=O)c1ccc2c(c1)oc1ccc(C3=CCNCC3)cc12)C(=O)O` [Compound 70, (S)-3-methyl-2-(8-(1,2,3,6-tetrahydropyridin-4-yl)dibenzo[b,d]furan-3-sulfonamido)butanoic acid]: the pIC50 is 8.27.

The compound `Cc1n[nH]c(C)c1-c1ccc2sc3cc(S(=O)(=O)N[C@H](C(=O)O)C(C)C)ccc3c2c1` [Compound 41, (S)-2-(8-(3,5-dimethyl-1H-pyrazol-4-yl)dibenzo[b,d]thiophene-3-sulfonamido)-3-methylbutanoic acid] had a pIC50 of 7.11.

As for `CC(C)[C@@H](NS(=O)(=O)c1ccc2oc3cc(-c4nc5c(F)c(F)c(F)cc5s4)ccc3c2c1)C(=O)O` [Compound 300, (R)-3-methyl-2-(7-(4,5,6-trifluorobenzo[d]thiazol-2-yl)dibenzo[b,d]furan-2-sulfonamido)butanoic acid], the pIC50 is 7.29.

As to `CC(C)[C@H](NS(=O)(=O)c1ccc2c(c1)oc1cc(-c3ccc(Cl)s3)ccc12)C(=O)O` [Compound 84, (S)-2-(7-(5-chlorothiophen-2-yl)dibenzo[b,d]furan-3-sulfonamido)-3-methylbutanoic acid], the pIC50 is more than 8.82.

In turn, `CC(C)[C@H](NS(=O)(=O)c1ccc2c(c1)sc1ccc(-c3ccc(Cl)nc3)cc12)C(=O)O` [Compound 63, (S)-2-(8-(6-chloropyridin-3-yl)dibenzo[b,d]thiophene-3-sulfonamido)-3-methylbutanoic acid] gave a pIC50 of 7.48.

In turn, `CC(C)[C@@H](NS(=O)(=O)c1ccc2c(c1)sc1cc(-c3ccco3)ccc12)C(=O)O` [Compound 129, (R)-2-(7-(furan-2-yl)dibenzo[b,d]thiophene-3-sulfonamido)-3-methylbutanoic acid] showed a pIC50 of more than 8.82.

In turn, `CC(C)[C@H](NS(=O)(=O)c1ccc2c(c1)oc1ccc(-c3ccc(-c4nnn[nH]4)s3)cc12)C(=O)O` [Compound 207, (S)-2-(8-(5-(1H-tetrazol-5-yl)thiophen-2-yl)dibenzo[b,d]furan-3-sulfonamido)-3-methylbutanoic acid] had a pIC50 of 8.08.

As for `CC(C)c1nc(-c2ccc3c(c2)oc2cc(S(=O)(=O)N[C@H](C(=O)O)C(C)C)ccc23)no1` [Compound 154, (S)-2-(7-(5-isopropyl-1,2,4-oxadiazol-3-yl)dibenzo[b,d]furan-3-sulfonamido)-3-methylbutanoic acid], the pIC50 was 7.49.

On to `CC(C)[C@H](NS(=O)(=O)c1ccc2c(c1)oc1ccc(C(=N)NO)cc12)C(=O)O` [Compound 82, (S)-2-(8-(N-hydroxycarbamimidoyl)dibenzo[b,d]furan-3-sulfonamido)-3-methylbutanoic acid], for which the pIC50 is 8.74.

On to `Cc1nc(-c2ccccc2)sc1-c1ccc2oc3cc(S(=O)(=O)N[C@H](C(=O)O)C(C)C)ccc3c2c1` [Compound 163, (S)-3-methyl-2-(8-(4-methyl-2-phenylthiazol-5-yl)dibenzo[b,d]furan-3-sulfonamido)butanoic acid], for which the pIC50 is 6.77.

`CC(C)[C@H](NS(=O)(=O)c1ccc2c(c1)oc1ccc(-c3noc(-c4ccc(Cl)cc4Cl)n3)cc12)C(=O)O` [Compound 270, (S)-2-(8-(5-(2,4-dichlorophenyl)-1,2,4-oxadiazol-3-yl)dibenzo[b,d]furan-3-sulfonamido)-3-methylbutanoic acid]: the pIC50 was more than 8.82.

As to `COc1ccc(-c2ccc3oc4cc(S(=O)(=O)N[C@H](C(=O)O)C(C)C)ccc4c3c2)cc1` [Compound 310, (S)-2-(8-(4-methoxyphenyl)dibenzo[b,d]furan-3-sulfonamido)-3-methylbutanoic acid], the pIC50 was more than 8.82.

On to `CC(C)C[C@@H](NS(=O)(=O)c1ccc2oc3cc(-c4noc(C(C)(C)C)n4)ccc3c2c1)C(=O)O` [Compound 278, (R)-2-(7-(5-tert-butyl-1,2,4-oxadiazol-3-yl)dibenzo[b,d]furan-2-sulfonamido)-4-methylpentanoic acid], for which the pIC50 is 8.14.

Take `CC(C)[C@H](NS(=O)(=O)c1ccc2c(c1)oc1cc(-c3ccoc3)ccc12)C(=O)O` [Compound 79, (S)-2-(7-(furan-3-yl)dibenzo[b,d]furan-3-sulfonamido)-3-methylbutanoic acid]: the pIC50 is more than 8.82.

As to `CC(C)[C@H](NS(=O)(=O)c1ccc2c(c1)oc1ccc(-c3noc(C4CCCC4)n3)cc12)C(=O)O` [Compound 263, (S)-2-(8-(5-cyclopentyl-1,2,4-oxadiazol-3-yl)dibenzo[b,d]furan-3-sulfonamido)-3-methylbutanoic acid], the pIC50 is 8.60.

Take `CC(C)[C@@H](NS(=O)(=O)c1ccc2oc3cc(-c4cnn(C)c4)ccc3c2c1)C(=O)O` [Compound 117, (R)-3-methyl-2-(7-(1-methyl-1H-pyrazol-4-yl)dibenzo[b,d]furan-2-sulfonamido)butanoic acid]: the pIC50 is 8.55.

Compound `Cc1cnc(-c2ccc3c(c2)oc2cc(S(=O)(=O)N[C@H](C(=O)O)C(C)C)ccc23)s1` [Compound 234, (S)-3-methyl-2-(7-(5-methylthiazol-2-yl)dibenzo[b,d]furan-3-sulfonamido)butanoic acid] had a pIC50 of more than 8.82.

The term pIC50 denotes the negative decadic logarithm of the IC50, by convention in mol/L. Low values mean a high IC50, high ones a low IC50.

(Values after patent publication US20100227859A1, “TRICYCLIC COMPOUNDS AS MATRIX METALLOPROTEINASE INHIBITORS” (priority 2007, published 2010).)
